Columns and labels:
[1] = set-up: species or system Male SD (Sprague-Dawley) rats; settings: rat, in vivo, po, 0.036 mmol/kg
Description: Male SD (Sprague-Dawley) rats, weighing 180 to 300 g, were provided by Shanghai Xipuer-Beikai Experimental Animal Co., Ltd. The male animals were acclimatized to the environment for more than 3 days, and fasted for 12 hours overnight before the experiment, but were allowed to drink water. […] Before administration, the animals were checked to determine whether their body weights met the experimental requirements. Twelve rats were selected for grouping, two rats in each group. The drug solutions were administered intragastrically to the rats in an amount of 0.036 mmol/kg. The rats were euthanized with carbon dioxide gas and samples were collected, at 0.5 h, 1 h, 3 h, 6 h, 12 h, and 24 h, respectively. […] The supernatant plasma was taken, to which 10% trichloroacetic acid (containing PMPA as an internal standard, at a concentration of 100 ng/mL) was immediately added as a precipitant at a volume 5 times that of the plasma, to obtain plasma sample solutions. […] Two ceramic beads were added to each of the homogenization tubes for homogenization to obtain tissue homogenate samples. 100 μL of each biological sample was taken, placed in a 1.5 mL test tube, and centrifuged for 5 min. 20 μL of the supernatant was taken and mixed uniformly with 180 μL of water and then analyzed by LC-MS/MS. LC-MS/MS-AJ (Triple Quad 5500, AB SCIEX) was used for analysis of the samples. Chromatographic Column: Acquity UPLC HSS T3 (2.1×50 mm, 1.8 μm); Column Temperature: 40° C.; Flow Rate: 0.5 mL/min. Mobile Phase A: 0.1% formic acid in water, Mobile Phase B: Acetonitrile Solution. The mass spectrometry was performed with an electrospray ionization source (Turbo Ionspray) as an ion source, in a positive ion mode, at a capillary voltage of 3.0 kV, at a temperature of 500° C., and at a desolvation gas flow of 1000 L/h. The scanning time, cone voltage, collision energy, and the ion reaction for quantitative analysis were shown in Table 6 below: The concentration of the metabolite from each of the compounds in the liver was plotted as a function of time on a bar chart.

[2] = tested on: hepatitis B virus (HBV); settings: read-out: EC50, antiviral activity in vitro; cited from earlier work
[3] = tested on: lamivudine-resistant virus strains; settings: read-out: EC50, inhibitory activity against lamivudine-resistant virus strains; cited from earlier work
[4] = In-vitro metabolism in human liver microsomes, release of ETVMP (Example 24); type: in vitro ADME; settings: result in words
Description: (§1) Human liver microsomes (HLM) were purchased from IVT (In Vitro Technologies) (Product No. X008070, Batch No. SSP). Rat liver microsomes (RLM) were purchased from BD with a batch number of 16298, and mice liver microsomes (MLM) were purchased from Research Institute for Liver Diseases (Shanghai) Co., Ltd. (RILD), with a batch number of BQNI.
(§2) The test compounds PA3001, PA3002, PA3003, and PA3004 were synthesized by Zhejiang Palo Alto Pharmaceuticals, Inc., and dissolved in methanol (from Sinopharm Chemical Reagent Co., Ltd.) to prepare storage solutions at a concentration of 25 mM.
(§3) The enzymatic reaction was carried out in a 100 mM KH2PO4 buffer solution (pH 7.4), with a test compound at a concentration of 25 μM, human liver microsomes at a concentration of 2 mg/ml, and NADPH at a concentration of 2 mM. The reaction was initiated by NADPH which was added last. After the reaction was carried out for 5 min in a constant-temperature shaking water bath kettle, methanol at a volume of 1.5 times that of the reaction mixture was added immediately to terminate the reaction.
(§4) Each sample was centrifuged at a maximum speed of 13,600 rpm for 20 minutes using an Eppendorf tabletop centrifuge. The supernatant was taken, and was blow-dried by a nitrogen blower and then re-dissolved in mobile phase A (0.1% formic acid (v/v) in water).
(§5) • Analysis Column: Waters, Acquity UPLC HSS T3 Column • Flow Rate: 0.5 ml/min • Column Temperature: 40 degrees Celsius • III. Mass Spectrometry Condition • Ion Source: Electrospray Ionization Source • Ion Mode: Positive Ion Mode • Capillary Voltage: 3.0 kV • Temperature: 500° C. • Desolvation Gas Flow Rate: […] • Scan Time: 0.025 s • Cone Voltage: 40 V • Collision Energy: 18 eV • Q1 (m/z): 358 • Q3 (m/z): 152

[5] = In-vitro metabolism in rat liver microsomes, release of ETVMP (Example 24); type: in vitro ADME; settings: result in words
Description: as §1, §2, §3, §4, §5

[6] = In-vitro metabolism in mice liver microsomes, release of ETVMP (Example 24); type: in vitro ADME, mouse; settings: result in words
Description: as §1, §2, §3, §4, §5

| SMILES | AUC0-24 h of ETVMP in Liver [1] [nmol·h/g] | AUC0-24 h of ETVMP in Plasma [1] [nmol·h/g] | Activated in vitro into monophosphate metabolite ETVMP by human liver microsomes [4] | Activated in vitro into monophosphate metabolite ETVMP by rat liver microsomes [5] | AUC0-24 h of ETVMP in Brain Tissue [1] [nmol·h/g] | Activated in vitro into monophosphate metabolite ETVMP by mouse liver microsomes [6] | Efficiency of activation by human liver microsomes into ETVMP compared with comparative compound PA3001 [4] | Rank of conversion rate among tested compounds, human liver microsomes ([4]; Table 3) | Rank of conversion rate among tested compounds, rat liver microsomes ([5]; Table 3) | Rank of conversion rate among tested compounds, mouse liver microsomes ([6]; Table 3) | EC50 [2] [nM] | EC50 [3] [nM] |
| --- | --- | --- | --- | --- | --- | --- | --- | --- | --- | --- | --- | --- |
| C=C1[C@@H](CO)[C@@H](O)C[C@@H]1n1cnc2c(=O)[nH]c(N)nc21 [ETV, 2-amino-9-[(1S,3S,4S)-4-hydroxy-3-hydroxymethyl-2-methylenecyclopentyl]-1,9-dihydro-6H-purine-6-one, reference compound] | 16.6 | 0.55 | – | – | – | – | – | – | – | – | 4 | 10 to 59 |
| C=C1[C@H](COP2(=O)OCC[C@H](c3cccc(Cl)c3)O2)[C@@H](O)C[C@@H]1n1cnc2c(=O)[nH]c(N)nc21 (stereo partly drawn) [PA3001] | 16.2 | 0.17 | activated | activated | 0.2 | activated | – | – | – | – | – | – |
| C=C1[C@H](COP2(=O)OCC[C@H](c3cc(F)cc(Cl)c3)O2)[C@@H](O)C[C@@H]1n1cnc2c(=O)[nH]c(N)nc21 (stereo partly drawn) [PA3002] | 8.1 | 0.03 | – | – | – | – | significantly greater | – | – | – | – | – |
| C=C1[C@H](COP2(=O)OCC[C@H](c3ccncc3)O2)[C@@H](O)C[C@@H]1n1cnc2c(=O)[nH]c(N)nc21 (stereo partly drawn) [PA3003] | 18.9 | 0.19 | activated | activated | 1.1 | activated | – | – | – | – | – | – |

Second part, led by results:

| AUC0-24 h of ETVMP in Liver [1] [nmol·h/g] | AUC0-24 h of ETVMP in Plasma [1] [nmol·h/g] | Activated in vitro into monophosphate metabolite ETVMP by human liver microsomes [4] | Activated in vitro into monophosphate metabolite ETVMP by rat liver microsomes [5] | AUC0-24 h of ETVMP in Brain Tissue [1] [nmol·h/g] | Activated in vitro into monophosphate metabolite ETVMP by mouse liver microsomes [6] | Efficiency of activation by human liver microsomes into ETVMP compared with comparative compound PA3001 [4] | Rank of conversion rate among tested compounds, human liver microsomes ([4]; Table 3) | Rank of conversion rate among tested compounds, rat liver microsomes ([5]; Table 3) | Rank of conversion rate among tested compounds, mouse liver microsomes ([6]; Table 3) | SMILES | EC50 [2] [nM] | EC50 [3] [nM] |
| --- | --- | --- | --- | --- | --- | --- | --- | --- | --- | --- | --- | --- |
| 11.6 | 0.09 | activated | activated | – | activated | significantly greater | highest rate | highest rate | highest rate | C=C1[C@H](COP2(=O)OCC[C@H](c3cc(Cl)ccc3F)O2)[C@@H](O)C[C@@H]1n1cnc2c(=O)[nH]c(N)nc21 (stereo partly drawn) [PA3004] | – | – |
| 9.0 | 0.08 | – | – | – | – | – | – | – | – | C=C1[C@H](COP2(=O)OCC[C@H](c3cc(Cl)ccc3Cl)O2)[C@@H](O)C[C@@H]1n1cnc2c(=O)[nH]c(N)nc21 (stereo partly drawn) [PA3017] | – | – |

From patent US10913766B2, “Liver specific delivery-based entecavir prodrug, nucleoside cyclic phosphate compound, and application thereof” (ZHEJIANG PALO ALTO PHARMACEUTICALS, INC., priority 2017, dated 2021)
